In ChEMBL document CHEMBL3739374, “Synthesis and evaluation of anticancer activity of novel andrographolide derivatives” (Medchemcomm, 2015):
Converted amounts (≈) assume the structure as drawn.

Legend:
HeLa = test: Cytotoxicity against human HeLa cells by MTT assay; format: functional, cell-based
ACHN = test: Cytotoxicity against human ACHN cells by MTT assay; format: functional, cell-based
B16 = test: Cytotoxicity against mouse B16 cells by MTT assay; format: functional, cell-based
A549 = test: Cytotoxicity against human A549 cells by MTT assay; format: functional, cell-based
[1] = Cytotoxicity against rat IEC-6 cells by MTT assay; format: cell-based

Row | Compound | IC50 (HeLa) | IC50 (ACHN) | IC50 (B16) | IC50 (A549) | IC50 [1]
1 | C=C1CC[C@@H]2[C@](C)(CO)[C@H](O)CC[C@@]2(C)[C@@H]1/C=C/C1=CCOC1=O | 149 µg/mL (≈ 448 µM) | 328 µg/mL (≈ 986 µM) | 25.2 µg/mL (≈ 75.7 µM) | 117 µg/mL (≈ 353 µM) | 169 µg/mL (≈ 509 µM)
2 | C=C1CC[C@@H]2[C@]3(C)CO[C@@H](c4ccccc4)O[C@@H]3CC[C@@]2(C)[C@@H]1C/C=C1/C(=O)OC[C@H]1O | 3.8 µg/mL (≈ 8.66 µM) | 4.78 µg/mL (≈ 10.9 µM) | 9.54 µg/mL (≈ 21.8 µM) | 4.07 µg/mL (≈ 9.28 µM) | 19.2 µg/mL (≈ 43.8 µM)
3 | C[C@@H]1OC[C@@]2(C)[C@H]3CC[C@@]4(CO4)[C@@H](/C=C/C4=CCOC4=O)[C@]3(C)CC[C@H]2O1 | 7.78 µg/mL (≈ 20.8 µM) | 57.3 µg/mL (≈ 153 µM) | 44.1 µg/mL (≈ 118 µM) | 18.2 µg/mL (≈ 48.6 µM) | 35.1 µg/mL (≈ 93.6 µM)
4 | C=C1CC[C@@H]2[C@]3(C)CO[C@@H](CCCCC)O[C@@H]3CC[C@@]2(C)[C@@H]1C/C=C1/C(=O)OC[C@H]1O | 8.51 µg/mL (≈ 19.7 µM) | 9.54 µg/mL (≈ 22.1 µM) | 10 µg/mL (≈ 23.1 µM) | 7.07 µg/mL (≈ 16.3 µM) | 22.4 µg/mL (≈ 51.7 µM)
5 | C=C1CC[C@@H]2[C@]3(C)CO[C@@H](C)O[C@@H]3CC[C@@]2(C)[C@@H]1C/C=C1/C(=O)OC[C@H]1O | 4.27 µg/mL (≈ 11.3 µM) | 2.47 µg/mL (≈ 6.56 µM) | 4.78 µg/mL (≈ 12.7 µM) | 2.43 µg/mL (≈ 6.45 µM) | 6.34 µg/mL (≈ 16.8 µM)
6 | C=C1CC[C@@H]2[C@]3(C)CO[C@@H](C)O[C@@H]3CC[C@@]2(C)[C@@H]1/C=C/C1=CCOC1=O | 56.2 µg/mL (≈ 157 µM) | 125 µg/mL (≈ 349 µM) | 62 µg/mL (≈ 173 µM) | 88.7 µg/mL (≈ 247 µM) | 94.3 µg/mL (≈ 263 µM)
7 | C=C1CC[C@@H]2[C@]3(C)CO[C@@H](C)O[C@@H]3CC[C@@]2(C)[C@@H]1C/C=C1\C=COC1=O | 48.6 µg/mL (≈ 135 µM) | 60.6 µg/mL (≈ 169 µM) | 43 µg/mL (≈ 120 µM) | 46.9 µg/mL (≈ 131 µM) | 40 µg/mL (≈ 112 µM)
8 | C=C1CC[C@@H]2[C@]3(C)CO[C@@H](CCC)O[C@@H]3CC[C@@]2(C)[C@@H]1C/C=C1/C(=O)OC[C@H]1O | 27 µg/mL (≈ 66.8 µM) | 32.9 µg/mL (≈ 81.4 µM) | 44.4 µg/mL (≈ 110 µM) | 23 µg/mL (≈ 56.8 µM) | 14.1 µg/mL (≈ 35 µM)
9 | C=C1CC[C@@H]2[C@]3(C)CO[C@@H](C)O[C@@H]3CC[C@@]2(C)[C@@H]1C/C=C1/C(=O)OC[C@H]1OC(C)=O | 4.43 µg/mL (≈ 10.6 µM) | 8.54 µg/mL (≈ 20.4 µM) | 4.01 µg/mL (≈ 9.58 µM) | 3.34 µg/mL (≈ 7.98 µM) | 7.23 µg/mL (≈ 17.3 µM)
10 | CC(=O)O[C@@H]1COC(=O)/C1=C/C[C@@H]1[C@@]2(CC[C@@H]3[C@]4(C)CO[C@@H](C)O[C@@H]4CC[C@]31C)CO2 | 7.12 µg/mL (≈ 16.4 µM) | 5.58 µg/mL (≈ 12.8 µM) | 6.98 µg/mL (≈ 16.1 µM) | 4.37 µg/mL (≈ 10.1 µM) | 14.5 µg/mL (≈ 33.4 µM)
11 | C[C@@H]1OC[C@@]2(C)[C@H]3CC[C@@]4(CO4)[C@@H](C/C=C4/C(=O)OC[C@H]4O)[C@]3(C)CC[C@H]2O1 | 6.97 µg/mL (≈ 17.8 µM) | 4.49 µg/mL (≈ 11.4 µM) | 6.34 µg/mL (≈ 16.2 µM) | 4.34 µg/mL (≈ 11.1 µM) | 8.76 µg/mL (≈ 22.3 µM)
12 | C=C1CC[C@@H]2[C@]3(C)CO[C@@H](CC)O[C@@H]3CC[C@@]2(C)[C@@H]1C/C=C1/C(=O)OC[C@H]1O | 8.91 µg/mL (≈ 22.8 µM) | 14.7 µg/mL (≈ 37.6 µM) | 10.2 µg/mL (≈ 26.2 µM) | 8.12 µg/mL (≈ 20.8 µM) | 14.2 µg/mL (≈ 36.4 µM)
13 | C=C1CC[C@@H]2[C@]3(C)CO[C@@H](CCCC)O[C@@H]3CC[C@@]2(C)[C@@H]1C/C=C1/C(=O)OC[C@H]1O | 14.1 µg/mL (≈ 33.6 µM) | 15.3 µg/mL (≈ 36.7 µM) | 21.1 µg/mL (≈ 50.4 µM) | 33.5 µg/mL (≈ 80.1 µM) | 31.2 µg/mL (≈ 74.6 µM)
14 | C=C1CC[C@@H]2[C@](C)(CO)[C@H](O)CC[C@@]2(C)[C@@H]1C/C=C1/C(=O)OC[C@H]1O [ANDROGRAPHOLIDE] | 10.4 µg/mL (≈ 29.7 µM) | 3.03 µg/mL (≈ 8.65 µM) | 7.54 µg/mL (≈ 21.5 µM) | 9.71 µg/mL (≈ 27.7 µM) | 8.26 µg/mL (≈ 23.6 µM)
15 | COc1cccc2c1C(=O)c1c(O)c3c(c(O)c1C2=O)C[C@@](O)(C(=O)CO)C[C@@H]3O[C@H]1C[C@H](N)[C@H](O)[C@H](C)O1 [DOXORUBICIN] | 1.28 µg/mL (≈ 2.35 µM) | 2.08 µg/mL (≈ 3.83 µM) | 3.16 µg/mL (≈ 5.81 µM) |  | 2.6 µg/mL (≈ 4.78 µM)
